Converted amounts (≈) assume the structure as drawn. Like-named read-outs stand apart in the source and are kept apart here.
Columns and labels:
[1] = target: T1, rA1 adenosine receptor (Rattus norvegicus, UniProt P25099); assay: Binding affinity at rA1 adenosine receptors
T1 sequence (P25099 1-326): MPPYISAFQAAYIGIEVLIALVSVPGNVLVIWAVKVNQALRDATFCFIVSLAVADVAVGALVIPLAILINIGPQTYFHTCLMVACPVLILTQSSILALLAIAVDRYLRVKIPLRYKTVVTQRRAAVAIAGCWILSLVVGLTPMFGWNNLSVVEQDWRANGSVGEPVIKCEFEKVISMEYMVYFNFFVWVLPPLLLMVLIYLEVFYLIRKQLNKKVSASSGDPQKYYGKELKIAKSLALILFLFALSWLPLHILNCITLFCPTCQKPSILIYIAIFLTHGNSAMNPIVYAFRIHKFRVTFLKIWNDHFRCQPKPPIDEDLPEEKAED

[2] = target: rA2A adenosine receptor (Rattus norvegicus, UniProt P30543); assay: Binding affinity at rA2A adenosine receptors
Chain of rA2A adenosine receptor (P30543 whole entry): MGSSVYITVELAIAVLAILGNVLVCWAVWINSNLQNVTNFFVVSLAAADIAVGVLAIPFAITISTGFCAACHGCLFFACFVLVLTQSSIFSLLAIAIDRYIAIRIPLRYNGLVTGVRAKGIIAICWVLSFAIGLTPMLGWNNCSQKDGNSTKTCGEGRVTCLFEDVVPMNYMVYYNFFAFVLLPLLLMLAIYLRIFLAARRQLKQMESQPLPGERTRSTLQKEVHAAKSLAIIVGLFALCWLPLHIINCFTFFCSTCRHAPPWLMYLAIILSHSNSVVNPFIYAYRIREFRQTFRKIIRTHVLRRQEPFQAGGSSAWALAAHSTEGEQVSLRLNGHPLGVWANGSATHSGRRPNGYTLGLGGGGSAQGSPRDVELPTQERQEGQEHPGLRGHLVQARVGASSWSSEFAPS

[3] = system: A375 cells; assay: Flow cytometry analysis of G2/M accumulation and sub-G1 apoptosis, A375; type: cell-based, human; conditions: for EC50: Homo sapiens, A-375
Procedure: (§1) A375 and NCTC2544 adherent cells were trypsinized, mixed with floating cells, washed with PBS and permeabilised in 70% (vol/vol) ethanol/PBS solution at 4° C. for at least 24 hours. Jurkat, HeL023 and PBMC cells were centrifuged for 10 minutes at 1000×g. The cell pellet was then resuspended and permeabilised in 70% (vol/vol) ethanol/PBS solution at 4° C. for at least 24 hours. The cells were washed with PBS and the DNA was stained with a PBS solution, containing 20 μg/ml of propidium iodide and 100 μg/ml of RNAse, at room temperature for 30 minutes. Cells were analysed by FACScan (Becton-Dickinson) and the content of DNA was evaluated by the Cell-LISYS program (Becton-Dickinson). Cell distribution among cell cycle phases and apoptotic cells was evaluated as previously described (Secchiero et al., 2001). Briefly, the cell cycle distribution is shown as the percentage of cells containing 2n (G1 phase), 4n (G2 and M phases), 4n>x>2n. DNA amount (S phase) judged by propidium iodide staining. The apoptotic population is the percentage of cells with DNA content lower than 2n.
Cell proliferation and apoptosis are quantified by flow cytometer analysis after propidium-iodide (PI) DNA staining. At 24 hours post-exposure, paclitaxel and vindesine induced a dose dependent cell accumulation into G2/M cell cycle phases and a parallel decrease of the G1 population.
(§2) EC50 values were obtained by analysing G2/M accumulation dose response curve. ECMAXvalues were obtained by analysing sub-G1 accumulation dose response curve. Paclitaxel values have units of ng/ml. Vindesine values have units of nM. nd: not done.

[4] = system: HeL023 cells; assay: Flow cytometry analysis of G2/M accumulation and sub-G1 apoptosis, HeL023; type: cell-based, human; conditions: for EC50: Homo sapiens
Procedure: as §1
(§3) To verify the role of A3 receptor antagonists on paclitaxel and vindesine mediated alteration of cell proliferation and apoptosis, testing was performed with additional cell lines. […] Experimental conditions are similar to those for the A375 cell testing.
as §2

[5] = system: Jurkat cells; assay: Flow cytometry analysis of G2/M accumulation and sub-G1 apoptosis, Jurkat; type: cell-based, human; conditions: for EC50: Homo sapiens
Procedure: as §1, §3, §2

[6] = system: NCTC2544 cells; assay: Flow cytometry analysis of G2/M accumulation and sub-G1 apoptosis, NCTC 2544; type: cell-based, human; conditions: for EC50: Homo sapiens, NCTC-2544, NCTC 2544; for ECMAX (sub-G1 accumulation): NCTC 2544
Procedure: as §1, §3, §2

[7] = system: PBMC blasts; assay: Flow cytometry analysis of G2/M accumulation, PBMC; type: cell-based; conditions: Homo sapiens, vindesine with MRE3008F20 10 μM
Procedure: For multi-drug resistance testing, A375 and NCTC2544 cells are grown adherently and maintained in DMEM and EMEM medium, respectively, containing 10% fetal calf serum, penicillin (100 U/ml), streptomycin (100 μg/ml), L-glutamine (2 mM) at 37° C. in 5% CO2/95% air. HeL023 and Jurkat were grown in RPMI-1640 medium, containing 10% fetal calf serum, penicillin (100 U/ml), streptomycin (100 μg/ml), L-glutamine (2 mM) at 37° C. in 5% CO2/95% air. Cells are passaged two or three times weekly at a ratio between 1:5 and 1:10. Lymphocytes were isolated from buffy coats kindly provided by the Blood Bank of the University Hospital of Ferrara. Blood donated by healthy volunteers, after informed consent for research was obtained. Lymphocytes were isolated by density gradient centrifugation (Ficoll/Histopaque 1.077 g/ml). […]
A375 and NCTC2544 adherent cells were trypsinized, mixed with floating cells, washed with PBS and permeabilised in 70% (vol/vol) ethanol/PBS solution at 4° C. for at least 24 hours. […] Cells were analysed by FACScan (Becton-Dickinson) and the content of DNA was evaluated by the Cell-LISYS program (Becton-Dickinson). Cell distribution among cell cycle phases and apoptotic cells was evaluated as previously described (Secchiero et al., 2001). […]

[8] = system: human colon carcinoma HT29 cell line; assay: MTT growth inhibitory assay, HT29; type: cell-based; conditions: Homo sapiens, HT-29, HT29 cells, read-out: IC50 of anti-neoplastic agent used jointly with A3 antagonist
Text: (§4) The cells are sub-cultured twice a week.

[9] = system: human pancreatic cancer Panc-1 cell line; assay: MTT growth inhibitory assay, Panc-1; type: cell-based; conditions: PANC-1, Panc-1 cells, read-out: IC50 of anti-neoplastic agent used jointly with A3 antagonist
Procedure: (§5) For chemotherapeutic enhancement testing, the human melanoma A375, human lung carcinoma SKMES, colon carcinoma HT29, and pancreatic cancer Panc-1 cell lines were originally obtained from the ATCC (American Type Culture Collection) and have been maintained at PRC. […] The cells are cultured in a T25 Falcon Tissue Culture flask in a humidified incubator at 37° C. with 5% CO2-95% air. The cells are sub-cultured twice a week. The doubling times of A375, SKMES, HT29, and Panc-1 cultures are approximately 22, 46, 48, and 60 hr, respectively.
(§6) One of the growth inhibitory assays is the MTT assay. Cells (1000-1500 cells/well) are seeded in a 96-well micro culture plate in a total volume of 100 μl/well. After overnight incubation in a humidified incubator at 37° C. with 5% CO2-95% air, chemotherapeutic drug solutions diluted with culture medium at various concentrations are added in the amount of 100 μl to each well. The plates are placed in a humidified incubator at 37° C. with 5% CO2-95% air for 7-10 days. The plates are then centrifuged briefly and 100 μl of the growth medium is removed. Cell cultures are incubated with 50 μl of MTT [3-(4,5-dimethylthiazol-2-yl)-2,5-diphenyl-tetrazolium bromide] reagent (1 mg/ml in Dulbecco's phosphate-buffered saline) for 4 hr at 37° C. The resultant purple formazan precipitate is solubilized with 200 μl of 0.04 N HCl in isopropanol. Absorbance is measured at a wavelength of 595 nm and at a reference wavelength of 655 nm using a Bio-Rad Model 3550 Microplate Reader. Preferably, all tests are run in duplicate for each dose level.
(§7) The EZED50 computer program estimates the concentration of agent that inhibits cell growth by 50% as compared to the control cells. This is termed the IC50 and is determined by curve fitting test data using the following four logistic equation.
(§8) Inhibitory assay testing is also used to determine enhanced therapeutic effects from combining A3 receptor antagonists with other tumor inhibiting agents. The inhibitory cell growth assays are run with and without selected concentrations of A3 receptor antagonists. An enhanced therapeutic effect is present when the IC50 of the tumor inhibiting agent is lower with the A3 receptor antagonist.
(§9) Quantitatively, the enhancement factor (EF) is calculated by dividing the IC50 value of the tumor inhibiting agent for a tumor cell line by the IC50 value of the agent with A3 receptor antagonist for the same cell line: [formula]

[10] = system: human lung carcinoma SKMES cell line; assay: MTT growth inhibitory assay, SKMES; type: cell-based; conditions: SKMES cells, read-out: IC50 of anti-neoplastic agent used jointly with A3 antagonist
Text: as §4

[11] = system: human melanoma A375 cell line
Procedure: as §5, §6, §7, §8, §9

[12] = docetaxel administered at 100 mg/m^2; cited from earlier work
[13] = system: human melanoma A375 cell line; assay: MTT growth inhibitory assay, A375
Procedure: as §5, §6, §7, §8, §9

[14] = vindesine with MRE3008F20 10 μM
[15] = A-375, read-out: IC50 of anti-neoplastic agent used jointly with A3 antagonist, A375 cells, with IL-10 0.5 μg/ml
[16] = A-375, read-out: IC50 of anti-neoplastic agent used jointly with A3 antagonist, A375 cells, with IL-10 5 μg/ml
[17] = A-375, read-out: IC50 of anti-neoplastic agent used jointly with A3 antagonist, A375 cells, with IL-10 […]
[18] = A-375, read-out: IC50 of anti-neoplastic agent used jointly with A3 antagonist, A375 cells, with IL-11 0.5 μg/ml
[19] = A-375, read-out: IC50 of anti-neoplastic agent used jointly with A3 antagonist, A375 cells, with IL-11 5 μg/ml
[20] = A-375, read-out: IC50 of anti-neoplastic agent used jointly with A3 antagonist, A375 cells, with MRE3008F20 1 μg/ml
[21] = A-375, read-out: IC50 of anti-neoplastic agent used jointly with A3 antagonist, A375 cells, with MRE3008F20 3 μg/ml
[22] = A-375, read-out: IC50 of anti-neoplastic agent used jointly with A3 antagonist, A375 cells, with MRE3008F20 10 μg/ml
[23] = paclitaxel with MRE3008F20 10 μM

Compound	EC50 [3]	IC50 ([8]; with IL-10 0.5 μg/ml)	IC50 ([8]; with IL-11 0.5 μg/ml)	IC50 ([8]; with MRE3008F20 1 μg/ml)	IC50 ([9]; with IL-10 0.5 μg/ml)	IC50 ([9]; with IL-11 0.5 μg/ml)	IC50 ([9]; with MRE3008F20 1 μg/ml)	IC50 ([10]; with IL-10 0.5 μg/ml)	IC50 ([10]; with IL-11 0.5 μg/ml)	IC50 ([10]; with MRE3008F20 1 μg/ml)	IC50 [11]	IC50 [13, 15]	IC50 [13, 16]	IC50 [13, 17]	IC50 [13, 18]	IC50 [13, 19]	IC50 [13, 20]	IC50 [13, 21]	IC50 [13, 22]	also measured
CN(C)c1ccc(NC(=O)Nc2nc3nn(C)cc3c3nc(-c4ccco4)nn23)cc1 [IL-11, N-1-(4-dimethylamino-phenyl)-N′-5-[8-methyl-2-(2-furyl)-pyrazolo[4,3-e]1,2,4-triazolo[1,5-c]pyrimidine]-urea]																				Ki [1]: > 10 µM; Ki [2]: > 10 µM
CC[C@]1(O)C[C@@H]2CN(CCc3c([nH]c4ccccc34)[C@@](C(=O)OC)(c3cc4c(cc3OC)N(C)[C@H]3[C@@](O)(C(N)=O)[C@H](O)[C@]5(CC)C=CCN6CC[C@]43[C@@H]65)C2)C1 [vindesine]	0.48 ± 0.05 nM																			ECMAX, concentration exerting the maximal apoptosis (sub-G1) ([3]; A375, vindesine with MRE3008F20 10 μM): 1.66 ± 0.20 nM; EC50 [4, 14]: 0.71 ± 0.08 nM; ECMAX (sub-G1 accumulation) [4, 14]: 1.05 ± 0.09 nM; EC50 [5, 14]: 0.37 ± 0.04 nM; EC50 [6, 14]: 0.51 ± 0.06 nM; ECMAX (sub-G1 accumulation) [6, 14]: 1.34 ± 0.15 nM; ECMAX (sub-G1 accumulation) ([6]; vindesine, DMSO (no antagonist)): 2.50 ± 0.27 nM; EC50 [7]: 0.86 ± 0.09 nM
CC(=O)O[C@@]12CO[C@@H]1C[C@H](O)[C@@]1(C)C(=O)[C@H](O)C3=C(C)[C@@H](OC(=O)[C@H](O)[C@@H](NC(=O)OC(C)(C)C)c4ccccc4)C[C@@](O)([C@@H](OC(=O)c4ccccc4)[C@H]21)C3(C)C [docetaxel]		0.0033 ng/mL (≈ 0.00408 nM)	0.0028 ng/mL (≈ 0.00347 nM)	0.0012 ng/mL (≈ 0.00149 nM)	0.47 ng/mL (≈ 0.582 nM)	0.5 ng/mL (≈ 0.619 nM)	0.38 ng/mL (≈ 0.47 nM)	0.17 ng/mL (≈ 0.21 nM)	0.25 ng/mL (≈ 0.309 nM)	0.13 ng/mL (≈ 0.161 nM)	0.005 ng/mL (≈ 0.00619 nM)	0.0025 ng/mL (≈ 0.00309 nM)	0.0072 ng/mL (≈ 0.00891 nM)	0.0023 ng/mL (≈ 0.00285 nM)	0.0087 ng/mL (≈ 0.0108 nM)	0.0071 ng/mL (≈ 0.00879 nM)	0.0006 ng/mL (≈ 0.000743 nM)	0.0055 ng/mL (≈ 0.00681 nM)	0.0072 ng/mL (≈ 0.00891 nM)	acute hypersensitivity reaction, patients [12]: 13%; severe hypersensitivity reaction, patients [12]: 1.2%
CC(=O)O[C@H]1C(=O)[C@@]2(C)[C@H]([C@H](OC(=O)c3ccccc3)[C@]3(O)C[C@H](OC(=O)[C@H](O)[C@@H](NC(=O)c4ccccc4)c4ccccc4)C(C)=C1C3(C)C)[C@]1(OC(C)=O)CO[C@@H]1C[C@@H]2O [paclitaxel]	8.6 ± 0.81 ng/mL	1 ng/mL (≈ 1.17 nM)	0.99 ng/mL (≈ 1.16 nM)	0.85 ng/mL (≈ 0.995 nM)	1.7 ng/mL (≈ 1.99 nM)	1.6 ng/mL (≈ 1.87 nM)	1.5 ng/mL (≈ 1.76 nM)	1.2 ng/mL (≈ 1.41 nM)	0.78 ng/mL (≈ 0.913 nM)	0.8 ng/mL (≈ 0.937 nM)	0.67 ng/mL (≈ 0.785 nM)	1.2 ng/mL (≈ 1.41 nM)	0.5 ng/mL (≈ 0.586 nM)	0.61 ng/mL (≈ 0.714 nM)	1.4 ng/mL (≈ 1.64 nM)	0.4 ng/mL (≈ 0.468 nM)	0.59 ng/mL (≈ 0.691 nM)	0.66 ng/mL (≈ 0.773 nM)	0.54 ng/mL (≈ 0.632 nM)	percentage of apoptotic cells, maximum value ([3]; A375, paclitaxel at 5 ng/ml, range on different experiments): 35 to 53%; ECMAX, concentration exerting the maximal apoptosis (sub-G1) ([3]; A375, paclitaxel with MRE3008F20 10 μM): 3.04 ± 0.32 ng/mL; ECMAX, concentration exerting the maximal apoptosis (sub-G1) ([3]; A375, paclitaxel, DMSO (no antagonist)): 6.00 ± 0.63 ng/mL; EC50, G2/M accumulation ([3]; A375, paclitaxel, DMSO (no antagonist), 24 hours): 16.60 ± 2.00 ng/mL (≈ 19.4 nM); EC50 [4, 23]: 4.1 ± 0.4 ng/mL; ECMAX (sub-G1 accumulation) [4, 23]: 3.19 ± 0.30 ng/mL; EC50 [5, 23]: 2.52 ± 0.3 ng/mL; ECMAX (sub-G1 accumulation) [5, 23]: 2.29 ± 0.31 ng/mL; EC50 [6, 23]: 2.41 ± 0.3 ng/mL; ECMAX (sub-G1 accumulation) [6, 23]: 2.55 ± 0.24 ng/mL; IC50 ([13]; A-375, read-out: IC50 of paclitaxel plus MRE3008F20, IL-10, and IL-11, A375, with 10 μg/ml of MRE3008F20 or 5 μg/ml of IL-10 or IL-11): 0.4 to 0.54 ng/mL
